Reference: BindingDB's records for patent US9233979 (Merck Sharp & Dohme, 2016)

Molecular target: Mitogen-activated protein kinase 1 (Homo sapiens, UniProt P28482)
Assay: IMAP-FP Assay
Description: Activated ERK2 activity was determined in an IMAP-FP assay (Molecular Devices).

Chain of Mitogen-activated protein kinase 1 (P28482 whole entry): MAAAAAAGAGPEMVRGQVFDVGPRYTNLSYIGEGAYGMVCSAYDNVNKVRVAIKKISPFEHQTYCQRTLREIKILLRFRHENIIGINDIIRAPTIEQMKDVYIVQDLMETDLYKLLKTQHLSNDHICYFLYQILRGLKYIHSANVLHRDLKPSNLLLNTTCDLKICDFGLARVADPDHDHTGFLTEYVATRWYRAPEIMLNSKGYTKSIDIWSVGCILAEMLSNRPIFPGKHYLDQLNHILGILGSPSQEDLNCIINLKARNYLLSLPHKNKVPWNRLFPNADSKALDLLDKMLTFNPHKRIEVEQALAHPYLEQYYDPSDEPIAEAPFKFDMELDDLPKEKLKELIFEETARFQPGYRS

IC50: 8.69 nM
Compound: COC1CN(c2n[nH]c3cc(NC(=O)N[C@H](C)c4ccc(F)cc4)ncc23)C1 [US9233979, 23]
